Earlier results in patent US8822870B2, “Dielectric insulation medium” (ABB Technology Ltd., priority 2010, dated 2014).

O=C(C(F)(F)C(F)(F)F)C(F)(C(F)(F)F)C(F)(F)F [C6-ketone, 1,1,1,2,4,4,5,5,5-Nonafluoro-2-(trifluoromethyl)pentan-3-one]
LC50 4 hours: about 100,000 ppm
